Legend:
[1] = target: T1, Soa1 (YIL166C) (Saccharomyces cerevisiae, UniProt P40445); assay: growth rate of sul1 sul2 deletion strain (Monod fit), not direct uptake; assay type: cell-based; conditions: cell growth constant, not transport Km
T1 construct: full-length, native SOA1 locus, in sulfur-starved S. cerevisiae cells
T1 sequence (P40445 1-542): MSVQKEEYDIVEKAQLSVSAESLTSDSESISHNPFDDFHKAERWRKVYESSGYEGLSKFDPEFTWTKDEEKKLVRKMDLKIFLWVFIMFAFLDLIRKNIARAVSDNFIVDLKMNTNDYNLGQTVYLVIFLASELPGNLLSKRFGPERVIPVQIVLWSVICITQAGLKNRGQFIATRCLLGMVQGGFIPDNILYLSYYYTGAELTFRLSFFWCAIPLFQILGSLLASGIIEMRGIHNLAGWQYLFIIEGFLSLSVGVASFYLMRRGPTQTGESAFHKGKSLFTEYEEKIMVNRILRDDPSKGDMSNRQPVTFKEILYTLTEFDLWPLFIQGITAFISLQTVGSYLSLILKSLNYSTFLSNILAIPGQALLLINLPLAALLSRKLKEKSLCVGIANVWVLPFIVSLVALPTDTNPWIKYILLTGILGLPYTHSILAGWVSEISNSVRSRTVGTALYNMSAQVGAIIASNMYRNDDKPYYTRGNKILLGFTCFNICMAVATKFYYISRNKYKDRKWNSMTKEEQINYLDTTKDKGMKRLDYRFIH

[2] = substrate: O=S(=O)(O)O; assay: radiolabelled uptake in sulfur-starved cells; assay type: cell-based, Aspergillus nidulans; conditions: pH 6.5 Bis-Tris, 30 °C, 1 min uptake, labelled compound ([35S]), H+ symport, sul1 sul2 soa1 deletion background

Molecule: O=S(O)O [sulfite]
- Ks (half-velocity constant for growth) ([1]; pH 6.5, sulfite as sole sulfur source): 67.4 ± 8.3 µM

Molecule: O=S(=O)(O)S [thiosulfate]
- Ks (half-velocity constant for growth) ([1]; pH 6.5, thiosulfate as sole sulfur source): 75.8 ± 6.0 µM

B1: AstA (Aspergillus nidulans) (protein)
chain: MADYKSTNPTVENKDDVAVPEYVIDWTLEEETKAKRKLDLMIMPILTLGFFCLQLDRGNMANAITDNFMEDVGINQDQFNVGQQMLSLGIVLTEIPSNMILYRVGPGKWLTLQLFLFGIVSTFQAFQRGYGAFIATRFLLGITESGFIPGGLWTLSTWYTRDETAKRVMIFYFGNQIGQASAKLLAYGILHMRGVGGQSGWFWLFALMGSFTVFSGFIFGFFLLDSFKNPHSTFLPKMSRFTERELHILQTRVLLDDPMKGKKKRKIGLGAFKRAFTDWRIWVHFLITLSNNGPQRAFDTYAPSIVTSFGFGRLVSNAMAAVGLFLQVPVSFAFSWVSDHYNRRGETVMLGFFCHLLGYIFNRTFTDVNLRGVRYFGVVWTQTFGTFSHPLNIAWLSLTCKDSEQRALAMAGVIMNANIAGIYGAQIFRSDDKPLYRRGFSVALSVLAVGLVLAIVRYVDTMIHRRRKLQAVEDGSEQDTDADHKLT
notes: full-length, codon-optimized synthetic gene in SOA1 locus of S. cerevisiae sul1 sul2 soa1 deletion strain
- Km [2]: 7.50 ± 0.53 µM

From publication PMC5303821, “Major sulfonate transporter Soa1 in Saccharomyces cerevisiae and considerable substrate diversity in its fungal family” (Nature Communications, 2017)
